Experimental data: ChEMBL document CHEMBL4390677, “Topographical Mapping of Isoform-Selectivity Determinants for J-Channel-Binding Inhibitors of Sphingosine Kinases 1 and 2” (J Med Chem, 2019)

Experiments:
Sphingosine kinase 1 = Sphingosine kinase 1 (Homo sapiens, UniProt Q9NYA1); assay: Inhibition of GFP-tagged SK1 (unknown origin) expressed in HEK293 cells using Sph as substrate measured after 30 mins in presence of [gamma32P]ATP by Cerenkov counting analysis; format: cell-based
Homo sapiens = organism: Homo sapiens; assay: Selectivity index, ratio of IC50 for GFP-tagged SK1 (unknown origin) expressed in HEK293 cells to IC50 for purified SK2 (unknown origin)
Sphingosine kinase 2 [1] = target: T1, Sphingosine kinase 2 (Homo sapiens, UniProt Q9NRA0); assay: Inhibition of recombinant human full-length N-terminal His-tagged SK2 expressed in baculovirus infected Sf9 insect cells using Sph as substrate measured after 30 mins in presence of [gamma32P]ATP by Cerenkov counting analysis
T1 sequence (Q9NRA0 whole entry): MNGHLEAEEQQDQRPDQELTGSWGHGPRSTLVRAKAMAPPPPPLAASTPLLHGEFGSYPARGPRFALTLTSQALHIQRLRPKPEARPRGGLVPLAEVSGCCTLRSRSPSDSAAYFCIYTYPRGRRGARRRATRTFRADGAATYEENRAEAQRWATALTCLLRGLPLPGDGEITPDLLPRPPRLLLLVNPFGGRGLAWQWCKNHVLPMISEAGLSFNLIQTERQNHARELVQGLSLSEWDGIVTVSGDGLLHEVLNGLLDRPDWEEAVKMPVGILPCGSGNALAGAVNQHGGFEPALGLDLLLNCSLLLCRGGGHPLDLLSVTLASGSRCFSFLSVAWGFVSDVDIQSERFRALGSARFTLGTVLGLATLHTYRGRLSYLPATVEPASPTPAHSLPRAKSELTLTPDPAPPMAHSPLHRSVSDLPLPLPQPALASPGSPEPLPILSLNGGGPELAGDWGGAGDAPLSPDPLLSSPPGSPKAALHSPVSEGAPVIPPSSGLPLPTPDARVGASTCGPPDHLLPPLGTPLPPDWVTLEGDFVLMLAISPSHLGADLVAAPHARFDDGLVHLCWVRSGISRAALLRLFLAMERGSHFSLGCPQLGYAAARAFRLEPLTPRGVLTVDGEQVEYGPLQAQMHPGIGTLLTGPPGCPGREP

[2] = target: T2, Sphingosine kinase 2 (Homo sapiens) (UniProt Q9NRA0); assay: Inhibition of recombinant human full-length N-terminal His-tagged SK2 expressed in baculovirus infected Sf9 insect cells at 3 uM using Sph as substrate measured after 30 mins in presence of [gamma32P]ATP by Cerenkov counting analysis relative to control
T2 sequence (whole entry): T1 sequence (Q9NRA0 whole entry)

Sphingosine kinase 2 [3] = target: T1, Sphingosine kinase 2; assay: Inhibition of SK2 (unknown origin)

Sphingosine kinase 1, sequence (Q9NYA1 whole entry): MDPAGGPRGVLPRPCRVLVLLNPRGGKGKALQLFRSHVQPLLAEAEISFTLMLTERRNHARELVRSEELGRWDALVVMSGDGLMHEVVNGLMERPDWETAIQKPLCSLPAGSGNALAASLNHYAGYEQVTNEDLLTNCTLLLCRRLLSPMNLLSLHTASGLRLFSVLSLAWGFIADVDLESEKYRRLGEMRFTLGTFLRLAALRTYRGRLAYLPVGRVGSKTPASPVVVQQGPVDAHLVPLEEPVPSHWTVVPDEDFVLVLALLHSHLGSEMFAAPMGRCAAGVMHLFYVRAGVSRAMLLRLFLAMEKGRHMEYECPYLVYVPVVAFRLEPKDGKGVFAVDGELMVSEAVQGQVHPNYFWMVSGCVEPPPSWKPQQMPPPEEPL

Compound	IC50 (Sphingosine kinase 1) [nM]	Ratio IC50 (Homo sapiens)	IC50 (Sphingosine kinase 2 [1]) [nM]	inhibition [2] [%]	Ki (Sphingosine kinase 2 [3]) [µM]
OC[C@H]1CCCN1Cc1ccc(COc2cccc(CCc3ccccc3)c2)cc1	26	0.74	35		
O=S(=O)(Cc1cccc(OCc2ccc(CN3CCC[C@@H]3CO)cc2)c1)c1ccccc1	144	< 0.048		16	
O=S(=O)(Oc1cccc(OCc2ccc(CN3CCC[C@@H]3CO)cc2)c1)c1ccccc1	11	0.012	902		
OC[C@H]1CCCN1Cc1ccc(COc2cccc(SCc3ccccc3)c2)cc1	137	5.3	26		
OC[C@H]1CCCN1Cc1ccc(COc2cccc(OCc3cccc(Cl)c3)c2)cc1	44	0.11	412		
OC[C@H]1CCCN1Cc1ccc(COc2cccc(SCc3ccc(Cl)cc3)c2)cc1	2360	76	31		
Oc1ccc(Nc2nc(-c3ccc(Cl)cc3)cs2)cc1					6.7
COc1ccc(COc2cccc(OCc3ccc(CN4CCC[C@@H]4CO)cc3)c2)cc1	> 3000	> 25	119		
OC[C@H]1CCCN1Cc1ccc(COc2cccc(OCc3ccc(F)cc3)c2)cc1	170	3.5	49		
OC[C@H]1CCCN1Cc1ccc(COc2cccc(SCc3ccc(F)cc3)c2)cc1	765	45	17		
OC[C@H]1CCCN1Cc1ccc(COc2cccc(OCc3ccc(Cl)cc3)c2)cc1	4130	101	41		
N#Cc1ccc(COc2cccc(OCc3ccc(CN4CCC[C@@H]4CO)cc3)c2)cc1	> 3000	> 2.7	1120		
OC[C@H]1CCCN1Cc1ccc(COc2cccc(OCc3ccccc3Cl)c2)cc1	39	0.26	151		
OC[C@H]1CCCN1Cc1ccc(COc2cccc(OCc3ccccc3)c2)cc1	14	0.88	16		
OC[C@H]1CCCN1Cc1ccc(COc2cccc(OCc3cccc(F)c3)c2)cc1	9	0.063	143		
OC[C@H]1CCCN1Cc1ccc(COc2cccc(OCc3ccccc3F)c2)cc1	41	0.75	55		
